Experimental data taken from patent publication US6127136A, “Detection of dioxin-like compounds by detection of transformed Ah receptor/ARNT complex” (Paracelsian, Inc., priority 1996, dated 2000).
Where “and” joins values, the source holds several entries; their conditions need not be identical. Equal entries are not always repeated.

Target: transformed Ah receptor/ARNT complex (Cavia porcellus, UniProt Q6J287)
Assay: mini-Ah immunoassay with anti-ARNT detection of transformed Ah receptor/ARNT complex
Type: biochemical, guinea pig (male Hartley, hepatic cytosol)
Parameters: AHR/ARNT heterodimer on DRE gel, anti-ARNT detection; in some samples recombinant baculovirus ARNT (Bradfield) added
Settings: for density, average / density: TCDD (+); for density: single replicate
Experimental: Male Hartley guinea pigs weighing 300-350 g were obtained from Cornell Research Animal Resources, Cornell University, Ithaca, N.Y. Guinea pigs were anaesthetized and killed with carbon dioxide. Livers were perfused in situ with 100 mL ice-cold perfusion buffer, excised, trimmed of connective tissue, poorly perfused liver and gall bladder and weighed. The liver was minced and five mL of ice-cold HEDG per gram liver were added and the whole homogenized in a 50 mL homogenizer with teflon pestle using at 200 rpm for a total of seven strokes. Crude homogenate was centrifuged at 12,500 RPM in 50 mL tubes in a JA17 rotor in a Beckman J2-MI preparative centifuge at 4 degrees C for 20 minutes.
For a typical mini-Ah immunoassay utilizing 12 samples, 5 mL of Transformed Ah Receptor Affinity Gel slurry described above was pipeted into a 50 mL conical tube. The slurry was washed with 40 mL HEDG and centifuged at 1000 g for 5 min, the supernatant withdrawn and discarded, the pellet washed with 40 mL HEDG, and centrifuged again. After the second centrifugation all but 5 mL of supernatant was withdrawn and the gel thus resuspended in the original volume. 10 mL guinea pig hepatic cytosol was thawed. The thawed cytosol was pooled and then divided into two 5 mL groups and treated with either 5 uL DMSO or 5 uL 10 uM TCDD in DMSO.
Assembly of transformation mixture:In the preferred embodiment of the mini-Ah immunoassay, each sample was composed of one 1.5 mL microfuge tube with the following sequential additions: 90 uL 4 M NaCl/HEDG, 400 uL Transformed Ah Receptor Affinity Gel slurry and 800 uL cytosol (treated with DMSO or TCDD as described above). The three components described above are the minimum components added at that step of the mini-Ah immunoassay. Any additional materials, such as ARNT, anti-ARNT and anti-Rabbit/alkaline phosphatase conjugate, were sometimes also added at this time as described in the specific examples. After assembly of the samples, the tubes were capped and the samples incubated at room temperature for 2 hours with gentle rocking to allow transformation of the Ah receptor to take place, interaction of transformed Ah receptor and ARNT, and binding of the transformed Ah receptor as a heteromer to the DRE oligonucleotide contained on the Transformed Ah Receptor Affinity Gel.
Immunoprobing of transformed Ah receptor: The nitrocellulose membrane was then removed from the ELIFA apparatus, rinsed briefly with water, and placed in 20 mL blocker containing test antibody. All antibodies were incubated with the nitrocellulose membrane for one hour at room temperature. When the test antibody was anti-Ah receptor/alkaine phosphatase conjugate, 100 uL anti-Ah receptor/alkaline phosphatase conjugate (1:200), per 20 mL blocker was used. When anti-ARNT was added to the transformation mixture, anti-Rabbit/alkaline phosphatase conjugate (Sigma, St. Louis, Mo.) diluted 1:1000 (20 uL to 20 mL blocker) was used to probe the membrane. When ARNT, anti-ARNT and anti-Rabbit or anti-ARNT and anti-Rabbit was added to the transformation mixture, the Immunoprobing step was eliminated.
Immunodetection and densitometry: In all cases the nitrocellulose membrane was rinsed prior to immunodetection 3 times for 5 min each with 100 mL TBST, briefly washed in AP development buffer and developed in freshly made BCIP/NBT developer for 5 min, whereupon the color reaction was stopped by washing the membrane in water.
Quantitative data were obtained by scanning the dried membrane in a Microtek 600ZS scanner in gray scale, 300 dpi, 0% brightness, 0% contrast. Densitometric measurements of the dot-blots were made using ScanAnalysis software (Biosoft, Cambridge U.K.).
Cytosol and DRE affinity gel are prepared as described above. Cytosol is dosed with 1:1000 v/v DMSO (-) or 1:1000 v/v 10 uM 2,3,7,8-tetrachlorodibenzo-p-dioxin in DMSO (+).
Immunoprobing of transformed Ah receptor is as described above with the following probes. […]

[1] = Example 3, 220 ng anti-ARNT spike
[2] = Example 3, 660 ng anti-ARNT spike
[3] = Example 4, ARNT/anti-ARNT/anti-rabbit
[4] = Example 4, anti-ARNT/anti-rabbit, no ARNT added
[5] = Example 4, codes 1-4 (ARNT 2 ug, anti-ARNT 2 uL)

Chain of transformed Ah receptor/ARNT complex (Q6J287 10-846): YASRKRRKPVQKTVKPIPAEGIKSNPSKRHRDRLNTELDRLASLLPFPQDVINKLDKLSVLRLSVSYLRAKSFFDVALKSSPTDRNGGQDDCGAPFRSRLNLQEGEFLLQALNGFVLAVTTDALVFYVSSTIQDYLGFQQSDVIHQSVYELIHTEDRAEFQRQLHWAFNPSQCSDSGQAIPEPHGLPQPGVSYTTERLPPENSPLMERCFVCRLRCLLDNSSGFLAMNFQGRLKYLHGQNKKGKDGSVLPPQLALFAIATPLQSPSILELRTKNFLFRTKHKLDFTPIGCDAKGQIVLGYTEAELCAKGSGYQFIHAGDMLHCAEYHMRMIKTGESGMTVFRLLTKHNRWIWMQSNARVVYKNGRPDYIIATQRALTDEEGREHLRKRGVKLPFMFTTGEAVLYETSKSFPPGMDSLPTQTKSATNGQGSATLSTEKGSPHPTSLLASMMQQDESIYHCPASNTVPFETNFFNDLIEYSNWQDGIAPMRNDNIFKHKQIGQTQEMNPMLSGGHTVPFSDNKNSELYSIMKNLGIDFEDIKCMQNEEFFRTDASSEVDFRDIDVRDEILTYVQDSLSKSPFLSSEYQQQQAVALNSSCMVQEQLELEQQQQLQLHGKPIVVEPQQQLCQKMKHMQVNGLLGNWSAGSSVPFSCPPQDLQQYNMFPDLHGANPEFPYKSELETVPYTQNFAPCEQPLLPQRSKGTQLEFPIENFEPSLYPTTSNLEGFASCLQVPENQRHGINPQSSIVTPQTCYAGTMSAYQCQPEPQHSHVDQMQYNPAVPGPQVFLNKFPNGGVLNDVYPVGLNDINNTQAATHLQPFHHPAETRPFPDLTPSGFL
Chain of transformed Ah receptor/ARNT complex (Q0WXX3 1-790 partner): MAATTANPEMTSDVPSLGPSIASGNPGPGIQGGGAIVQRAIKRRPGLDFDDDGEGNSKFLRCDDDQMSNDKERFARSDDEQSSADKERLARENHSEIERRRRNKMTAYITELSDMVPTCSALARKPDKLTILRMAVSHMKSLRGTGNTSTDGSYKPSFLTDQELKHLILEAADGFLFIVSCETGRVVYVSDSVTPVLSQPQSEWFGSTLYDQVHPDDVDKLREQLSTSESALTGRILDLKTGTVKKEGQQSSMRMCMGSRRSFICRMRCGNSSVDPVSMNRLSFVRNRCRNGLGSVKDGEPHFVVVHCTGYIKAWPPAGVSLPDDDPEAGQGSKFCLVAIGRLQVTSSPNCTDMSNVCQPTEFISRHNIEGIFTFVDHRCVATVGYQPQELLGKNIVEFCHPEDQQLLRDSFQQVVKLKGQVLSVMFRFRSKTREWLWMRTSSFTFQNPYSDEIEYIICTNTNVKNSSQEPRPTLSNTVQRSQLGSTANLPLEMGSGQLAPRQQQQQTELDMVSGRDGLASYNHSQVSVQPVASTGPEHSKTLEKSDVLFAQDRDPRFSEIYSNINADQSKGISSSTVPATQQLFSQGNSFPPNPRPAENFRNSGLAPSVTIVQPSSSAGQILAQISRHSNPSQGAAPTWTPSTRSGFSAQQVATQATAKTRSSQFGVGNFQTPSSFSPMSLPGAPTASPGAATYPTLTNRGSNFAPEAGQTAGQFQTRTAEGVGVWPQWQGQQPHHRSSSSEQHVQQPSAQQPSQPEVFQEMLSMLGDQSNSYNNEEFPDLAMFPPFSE
Chain of transformed Ah receptor/ARNT complex (P27540 whole entry partner): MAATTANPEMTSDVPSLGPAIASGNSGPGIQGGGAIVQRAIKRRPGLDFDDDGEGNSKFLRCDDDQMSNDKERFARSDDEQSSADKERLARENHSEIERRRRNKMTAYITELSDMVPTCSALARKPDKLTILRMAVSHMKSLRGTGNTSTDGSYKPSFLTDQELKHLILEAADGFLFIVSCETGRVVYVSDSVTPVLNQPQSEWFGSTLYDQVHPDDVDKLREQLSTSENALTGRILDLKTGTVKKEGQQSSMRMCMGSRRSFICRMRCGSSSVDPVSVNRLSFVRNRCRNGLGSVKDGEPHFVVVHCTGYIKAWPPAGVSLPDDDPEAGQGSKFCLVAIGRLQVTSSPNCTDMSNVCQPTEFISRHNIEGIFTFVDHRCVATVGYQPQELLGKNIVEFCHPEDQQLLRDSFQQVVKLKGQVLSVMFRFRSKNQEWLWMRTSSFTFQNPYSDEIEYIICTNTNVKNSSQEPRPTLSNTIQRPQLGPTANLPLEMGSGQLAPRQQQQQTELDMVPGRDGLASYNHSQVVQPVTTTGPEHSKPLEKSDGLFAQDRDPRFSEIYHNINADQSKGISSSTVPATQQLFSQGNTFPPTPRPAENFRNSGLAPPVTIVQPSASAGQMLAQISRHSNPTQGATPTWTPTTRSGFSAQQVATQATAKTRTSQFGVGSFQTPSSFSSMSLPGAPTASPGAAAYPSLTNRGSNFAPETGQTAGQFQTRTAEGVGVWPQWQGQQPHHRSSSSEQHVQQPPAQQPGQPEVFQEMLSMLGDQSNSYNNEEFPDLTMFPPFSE

Clc1cc2c(cc1Cl)Oc1cc(Cl)c(Cl)cc1O2 [TCDD, 2,3,7,8-tetrachlorodibenzo-p-dioxin]
density, difference TCDD treated (+) minus DMSO treated (-) [1]: 185901
density, average (Example 3, 220 ng anti-ARNT spike, average of two replicates): 205498
density [1]: 191233 and 219762
density, difference TCDD treated (+) minus DMSO treated (-) [2]: 189840
density, average (Example 3, 660 ng anti-ARNT spike, average of two replicates): 261285
density [2]: 231412 and 291157
density, difference [3]: 76074
density (Example 4, ARNT/anti-ARNT/anti-rabbit in mixture): 85215 and 80175
density, average [3]: 82695
density, difference [4]: 33501
density [4]: 36309
density, average (Example 4, anti-ARNT/anti-rabbit, no ARNT added, second replicate lost): 36309
density, difference [5]: 235535
density, average [5]: 244132
density (Example 4, codes 1-4 (ARNT 2 ug, anti-ARNT 2 uL; printed Normal)): 233321 and 254942
